Test results published in patent publication US20180369289A1, “CELL TRANSPLANTATION DEVICE” (THE REGENTS OF THE UNIVERSITY OF CALIFORNIA, priority 2015, published 2018).
“Also recorded” adds a separate entry of the source.

Legend:
macrophages = assay: Macrophage attachment to microcapsules cultured with macrophages; assay type: cell-based; conditions: incorporated in 2.5% UPLVM microcapsules with porcine islet cells
Description: Porcine islet cells were encapsulated to 2.5% UPLVM microcapsules using the methods described above. One set of microcapsules incorporated CXCL12/SLF-1 to investigate the locally immunosuppressive effects of this immunorepellant. Microcapsules were then cultured in the presence of macrophages.

islets [1] = assay: Effect of PFCs on islet viability in hypoxic culture; assay type: cell-based, Sprague Dawley rats; conditions: for Apoptotic (%) / Dead (%) / Live (%): 0% O2, 24 hours
Description: (§1) For all viability studies, islets were stained with the following probes to determine viability status based on positive staining: Calcein Blue: live; propidium iodide: dead; and YoPro-1; apoptotic. Islet function was evaluated by looking at glucose stimulated insulin response (GSIR). Islet stimulation index (insulin release at high glucose concentration/insulin release at low glucose concentrations) or SI was calculated after insulin release was quantified using an ELISA.
(§2) Islets from Sprague Dawley rats were isolated, cultured, and assessed as described above. Three concentrations of perfluorodecalin (“PFD”) were added to the culture media: 0.1 ml PFC/ml media (“low PFC”), 0.375 ml PFC/ml media (“medium PFC”), and 0.75 ml PFC/ml media (“high PFC”).
In a second experiment, islets were plated under 0% or 20% oxygen conditions, as outlined above. Hypoxic islets were supplemented with low, medium, or high PFC levels, charged for 15 minutes in 40% O2 prior to plating. Islet viability was assessed as described above.

[2] = PFC oxygen content and release in culture media; assay type: physicochemical
Description: as §2
A first experiment was performed under 20% and 0% oxygen culture conditions in the absence of islets to characterize the oxygen release rates of various PFC concentrations and under different PFC-oxygen charging conditions. […] The PFCs were charged for 15 minutes in 40% O2 prior to plating.

[3] = Oxygen release from POGS (dissolved oxygen in media, hypoxia chamber); assay type: physicochemical
Description: (§3) Islets were obtained from male Sprague Dawley Rats (300-350 g) and cultured in vitro overnight at 37° C., 5% CO2. Supplemented CMRL media (Gibco) incubated at 0% O2 overnight in a hypoxia chamber (XVivo, Biospherix) in order to allow media to deoxygenate. Dissolved oxygen levels were measured in the media using dissolved oxygen meter (Oakton D110).
Phosphate-complexed calcium peroxide (PcCPO) was synthesized by mixing calcium peroxide (CPO) with phosphate-buffered saline at 10 mg/mL and incubating at 37° C. overnight. CP or PcCP was dissolved in a 1.5% UPLVM solution and alginate microcapsules were produced as described above. All oxygen concentration assays were performed in a controlled hypoxic chamber at 37° C. 5% CO2 0% ambient O2 to ensure that the data obtained was not confounded by changes in ambient O2 during the experiment.
[…] No islets were used in this experiment. […] When a 1:1 mixture of culture media and PBS was used, unencapsulated CPO (“PGS/PBS”) caused a rapid rise to 20% dissolved oxy gen which was sustained for at least an hour before gradually falling to 10%.

islets [4] = assay: Glucose-stimulated insulin release (GSIR) of islets cultured at 0% O2 with CPO; assay type: cell-based, Sprague Dawley Rats; conditions: added to the culture media; p<0.05
Description: as §3, §1
In order to be useful for diabetes treatment, the isolated islets must retain the ability to produce insulin, not just maintain viability. Thus, the insulin release characteristics of islets cultured at 0% O2 in the presence of CPO was investigated by measuring the glucose-stimulated insulin release (GSIR).

islets [5] = assay: Viability of isolated islets under hypoxia with CPO; assay type: cell-based, Sprague Dawley Rats; conditions: 5 mg/ml or 10 mg/ml in culture media or culture media/PBS mixture; p<0.01 relative to 0% O2 without POGS
Description: as §3, §1
About 60% and 70% of islets were alive and viable immediately after isolation and after the 24 hour culture at 20% O2, respectively. However, the proportion of live/viable islets dropped to less than 30% after 24 hour culture at 0% O2. Islets cultured for 24 hours at 0% O2 were rescued by 5 mg/ml or 10 mg/ml CPO (“POGS”) in culture media or in the culture media/PBS mixture (p<0.01 relative to 0% O2 without POGS).

[6] = medium PFC 0.375 ml PFC/ml media

In the case of “CXCL12/SLF-1: immunorepellant incorporated into 2.5% UPLVM microcapsules”, the “Macrophage attachment to microcapsule” value (macrophages) is reported as “no macrophage attachment; also recorded: observed only for the microcapsules lacking CXCL12/SLF-1”.
With `FC1(F)C(F)(F)C(F)(F)C2(F)C(F)(F)C(F)(F)C(F)(F)C(F)(F)C2(F)C1(F)F` (centres unmarked) [PFC, perfluorodecalin] the “Apoptotic (%)” value (islets [1]; high PFC 0.75 ml PFC/ml media) was 17.7%, the “Dead (%)” value (islets [1]; high PFC 0.75 ml PFC/ml media) was 39.9% and the “Live (%)” value (islets [1]; high PFC 0.75 ml PFC/ml media) was 42.3%. The “Apoptotic (%)” value (islets [1]; low PFC 0.1 ml PFC/ml media) was 8.73%, the “Dead (%)” value (islets [1]; low PFC 0.1 ml PFC/ml media) was 42.1% and the “Live (%)” value (islets [1]; low PFC 0.1 ml PFC/ml media) was 49.2%. For the same compound, the “Apoptotic (%)” value (islets [1]; [6]) was 0.355%, the “Dead (%)” value (islets [1]; [6]) was 69.1% and the “Live (%)” value (islets [1]; [6]) was 30.5%. The “Islet viability at 24 hours under hypoxic conditions” value (islets [1]; all PFC concentrations) was “significantly improved islet viability”, the “Time for oxygen content to fall from 40% to the ambient 20%” value ([2]; charged 15 to 90 minutes in 40% O2, added to culture media at 20% O2) was ≤ 10 min and the “O2 release profile under hypoxic conditions” value ([2]; charged 15 minutes in 40% O2) was “prolonged O2 release profile”.
In the case of “Phosphate-complexed calcium peroxide [PcCPO]”, the “Dissolved oxygen content versus uncomplexed CPO” value ([3]; encapsulated, 5 mg/ml) is reported as “higher dissolved oxygen content than uncomplexed CPO” and the “Effect on reduction of GSIR in islets cultured 24 hrs at 0% O2” value (islets [4]) is reported as “significantly reversed this reduction”.
With `[Ca+2].[O-][O-]` [CPO, calcium peroxide] the “Viability of islets cultured 24 hours at 0% O2” value (islets [5]) was “rescued”, the Dissolved oxygen content ([3]; unencapsulated CPO 10 mg/ml in 1:1 culture media and PBS, after gradual fall) was 10% and the Dissolved oxygen content ([3]; unencapsulated CPO 10 mg/ml in 1:1 culture media and PBS, rapid rise, sustained at least an hour) was 20%. For the same compound, the Dissolved oxygen content ([3]; unencapsulated CPO 10 mg/ml in culture media, hypoxia chamber, immediate and sustained) was “about 40%” and the “Effect on reduction of GSIR in islets cultured 24 hrs at 0% O2” value (islets [4]) was “significantly reversed this reduction”.
